In the supplement of paper PMC10627819:

Experiments:
[1] = test system: S. aureus Newman; assay: fitness (endpoint OD595 vs no drug) (fraction); higher = more growth
Method in brief: (§1)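 At 37 °C, bacteria in TSB, LB Lennox or CY were grown in 384-well plates from a starting OD595 of 0.01. OD595 was measured every 30 min for 14 h, with the first reading used as background. Fitness is the optical density at the switch to stationary phase as a fraction of the robust mean of no-drug control wells, capped at 1.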

[2] = test system: S. pneumoniae D39V; assay: as above
Method in brief: as §1

[3] = test system: B. subtilis 168; assay: as above
Method in brief: as §1

[4] = test system: S. aureus DSM 20231; assay: as above
Method in brief: as §1

[5] = test system: S. aureus Newman; assay: Bliss interaction score (quartile over a dose matrix) (fitness difference); higher = more antagonism (negative = synergy)
Method in brief: (§2)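 The Bliss score is observed minus expected fitness, where expected fitness is the product of the single-drug fitness values inferred from the combination data. Fitness is the OD595 at the onset of stationary phase over the plate's robust no-drug mean, capped at 1. Scores are summarised by quartiles over technical, biological and donor/recipient replicates.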

[6] = test system: S. pneumoniae D39V; assay: as above
Method in brief: as §2

[7] = test system: B. subtilis 168; assay: as above
Method in brief: as §2

[8] = test system: S. aureus DSM 20231; assay: as above
Method in brief: as §2
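For Bliss interaction score (quartile over a dose matrix) in this document: first quartile when negative (synergy) and third quartile when positive (antagonism).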
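For fitness (endpoint OD595 vs no drug) in this document: OD595 on entry to stationary phase over no-drug wells; at most 1.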

CCC[C@@H]1C[C@@H](C(=O)N[C@@H]([C@H]2O[C@H](SC)[C@H](O)[C@@H](O)[C@H]2O)[C@H](C)Cl)N(C)C1 [Clindamycin] + C[C@@H]1O[C@@H]1P(=O)(O)O [Fosfomycin]
Settings | fitness
[1], first compound 0.0312 µg/mL, partner 0.781 µg/mL | 0.322
[1], first compound 0.0312 µg/mL, partner 1.562 µg/mL | 0.0838
[1], first compound 0.0312 µg/mL, partner 3.124 µg/mL | 0.0458
[1], first compound 0.0625 µg/mL, partner 0.781 µg/mL | 0.0719
[1], first compound 0.0625 µg/mL, partner 1.562 µg/mL | 0.0192
[1], first compound 0.0625 µg/mL, partner 3.124 µg/mL | 0.0091
[1], first compound 0.125 µg/mL, partner 0.781 µg/mL | 0.0513
[1], first compound 0.125 µg/mL, partner 1.562 µg/mL | 0.0428
[1], first compound 0.125 µg/mL, partner 3.124 µg/mL | 0.0521
[2], first compound 0.0125 µg/mL, partner 1.25 µg/mL | 0.805
[2], first compound 0.0125 µg/mL, partner 2.5 µg/mL | 0.752
[2], first compound 0.0125 µg/mL, partner 5 µg/mL | 0.66
[2], first compound 0.015 µg/mL, partner 1.25 µg/mL | 0.787
[2], first compound 0.015 µg/mL, partner 2.5 µg/mL | 0.773
[2], first compound 0.015 µg/mL, partner 5 µg/mL | 0.736
[2], first compound 0.025 µg/mL, partner 1.25 µg/mL | 0.539
[2], first compound 0.025 µg/mL, partner 2.5 µg/mL | 0.497
[2], first compound 0.025 µg/mL, partner 5 µg/mL | 0.475
[2], first compound 0.03 µg/mL, partner 1.25 µg/mL | 0.621
[2], first compound 0.03 µg/mL, partner 2.5 µg/mL | 0.583
[2], first compound 0.03 µg/mL, partner 5 µg/mL | 0.525
[2], first compound 0.05 µg/mL, partner 1.25 µg/mL | 0.224
[2], first compound 0.05 µg/mL, partner 2.5 µg/mL | 0.203
[2], first compound 0.05 µg/mL, partner 5 µg/mL | 0.207
[2], first compound 0.06 µg/mL, partner 1.25 µg/mL | 0.368
[2], first compound 0.06 µg/mL, partner 2.5 µg/mL | 0.355
[2], first compound 0.06 µg/mL, partner 5 µg/mL | 0.291
[3], first compound 0.0625 µg/mL, partner 1.562 µg/mL | 0.493
[3], first compound 0.0625 µg/mL, partner 3.124 µg/mL | 0.419
[3], first compound 0.0625 µg/mL, partner 6.248 µg/mL | 0.208
[3], first compound 0.125 µg/mL, partner 1.562 µg/mL | 0.311
[3], first compound 0.125 µg/mL, partner 3.124 µg/mL | 0.234
[3], first compound 0.125 µg/mL, partner 6.248 µg/mL | 0.129
[3], first compound 0.25 µg/mL, partner 1.562 µg/mL | 0.226
[3], first compound 0.25 µg/mL, partner 3.124 µg/mL | 0.183
[3], first compound 0.25 µg/mL, partner 6.248 µg/mL | 0.095
[4], first compound 0.0312 µg/mL, partner 1.562 µg/mL | 0.292
[4], first compound 0.0312 µg/mL, partner 3.124 µg/mL | 0.104
[4], first compound 0.0625 µg/mL, partner 0.781 µg/mL | 0.122
[4], first compound 0.0625 µg/mL, partner 1.562 µg/mL | 0.0594
[4], first compound 0.0625 µg/mL, partner 3.124 µg/mL | 0.0236
[4], first compound 0.125 µg/mL, partner 0.781 µg/mL | 0.0473
[4], first compound 0.125 µg/mL, partner 1.562 µg/mL | 0.048
[4], first compound 0.125 µg/mL, partner 3.124 µg/mL | 0.0437

fitness, [3], one replicate
Settings | first compound 0.0039 µg/mL | first compound 0.0078 µg/mL | first compound 0.0156 µg/mL
partner 1.562 µg/mL | 0.7 | 0.637 | 0.556
partner 3.124 µg/mL | 0.633 | 0.564 | 0.51
partner 6.248 µg/mL | 0.55 | 0.549 | 0.45

Settings | Bliss interaction score
[5] | -0.253
[6] | 0.11
[7] | 0.0321
[8] | -0.075
